This test deals with BDF1 mice, B16 melanoma ip, median survival T/C. Description: NCI In Vivo Anticancer Drug Screen. Data for tumor model B16 Melanoma (intraperitoneal) in B6D2F1 (BDF1) mice. To be noted: endpoint: median survival time, higher = longer survival. A digest of the protocol:
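Read-out: survival or tumor size, given as treated/control ratio. Controls received vehicle only; animals bore transplantable tumors.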

The mark [1] stands for this setting: dose: 2.5 mg/kg/injection, schedule: Q04DX003 (ip), vehicle: saline with Tween-80.
[2] abbreviates: dose: 25.0 mg/kg/injection, schedule: Q01DX009 (ip), vehicle: Klucel (hydroxypropylcellulose) (HPC).
Setting [3] is: dose: 6.25 mg/kg/injection, schedule: Q01DX009 (ip), vehicle: saline with Tween-80.
Setting [4] is: dose: 12.5 mg/kg/injection, schedule: Q01DX009 (ip), vehicle: saline with Tween-80.
Setting [5] is: dose: 25.0 mg/kg/injection, schedule: Q01DX009 (ip), vehicle: saline with Tween-80.
[6] abbreviates: dose: 3.12 mg/kg/injection, schedule: Q01DX009 (ip), vehicle: saline with Tween-80.
The mark [7] stands for this setting: dose: 50.0 mg/kg/injection, schedule: Q01DX009 (ip), vehicle: saline with Tween-80.
Where [8] appears, read: dose: 12.0 mg/kg/injection, schedule: Q04DX003 (ip), vehicle: saline with Tween-80.
Setting [9] is: dose: 8.0 mg/kg/injection, schedule: Q01DX009 (ip), vehicle: saline with Tween-80.
The mark [10] stands for this setting: dose: 4.0 mg/kg/injection, schedule: Q01DX009 (ip), vehicle: saline with Tween-80.
Where [11] appears, read: dose: 16.0 mg/kg/injection, schedule: Q01DX009 (ip), vehicle: saline with Tween-80.
[12] abbreviates: dose: 32.0 mg/kg/injection, schedule: Q01DX009 (ip), vehicle: saline with Tween-80.

Where “and” joins values, the source holds several entries; their conditions need not be identical. Identical values can stand only once. Toxic doses and inconclusive results are not listed.

For `c1cc[c]([Sn][c]2ccccc2)cc1`, the T/C is 97 % of control (dose: 0.8 mg/kg/injection, schedule: Q04DX003 (ip), vehicle: saline with Tween-80); 97 % of control (dose: 1.2 mg/kg/injection, schedule: Q04DX003 (ip), vehicle: saline with Tween-80); 95 % of control (dose: 1.25 mg/kg/injection, schedule: Q01DX009 (ip), vehicle: saline); 100 % of control (dose: 1.8 mg/kg/injection, schedule: Q04DX003 (ip), vehicle: saline with Tween-80); 111 % of control (dose: 2.5 mg/kg/injection, schedule: Q01DX009 (ip), vehicle: saline); 121 % of control under setting [1]. Further, the T/C by setting is: (dose: 5.0 mg/kg/injection, schedule: Q01DX009 (ip), vehicle: saline) 109 % of control; (dose: 5.0 mg/kg/injection, schedule: Q04DX003 (ip), vehicle: saline with Tween-80) 115 % of control.

For the molecule `Cc1ccc(NCCN(C)C)c2c(=O)c3cc(O)ccc3sc12`, the T/C reads like this: (dose: 3.0 mg/kg/injection, schedule: Q01DX009 (ip), vehicle: Klucel (hydroxypropylcellulose) (HPC)) 119 % of control; (dose: 12.0 mg/kg/injection, schedule: Q01DX009 (ip), vehicle: Klucel (hydroxypropylcellulose) (HPC)) 157 % of control; (dose: 24.0 mg/kg/injection, schedule: Q01DX009 (ip), vehicle: Klucel (hydroxypropylcellulose) (HPC)) 160 % of control; under setting [2], 162 % of control.

Consider `ClCc1cccc2c(CCl)cccc12`, for which the T/C by setting is: under setting [3], 98 % of control; under setting [4], 98 % of control; under setting [5], 102 % of control; (dose: 25.0 mg/kg/injection, schedule: Q01DX009 (ip), vehicle: suspension in saline) 100 % of control; (dose: 50.0 mg/kg/injection, schedule: Q01DX009 (ip), vehicle: suspension in saline) 107 % of control; (dose: 100.0 mg/kg/injection, schedule: Q01DX009 (ip), vehicle: suspension in saline) 90 % of control.

As to `N#Cc1ccc(C(=O)C=C(C(F)(F)F)C(F)(F)F)cc1`, the T/C runs as follows: (dose: 1.56 mg/kg/injection, schedule: Q01DX009 (ip), vehicle: saline with Tween-80) 99 % of control; under setting [6], 100 % of control; under setting [3], 99 % of control; under setting [4], 93 % of control.

In the case of `C=C1C(=O)OC2CC1C(OC(C)=O)CC1(C)OC1CCC1(C)OC1CCC2(C)O` (stereo not drawn), the T/C is, setting by setting: (dose: 6.25 mg/kg/injection, schedule: Q01DX009 (ip), vehicle: Klucel (hydroxypropylcellulose) (HPC)) 102 % of control; (dose: 12.5 mg/kg/injection, schedule: Q01DX009 (ip), vehicle: Klucel (hydroxypropylcellulose) (HPC)) 97 % of control; under setting [2], 100 % of control; (dose: 50.0 mg/kg/injection, schedule: Q01DX009 (ip), vehicle: Klucel (hydroxypropylcellulose) (HPC)) 92 % of control.

Consider `O=C1[O][Hg][c]2cccc3cccc1c23`, for which the T/C is 106 % of control (dose: 1.65 mg/kg/injection, schedule: Q04DX003 (ip), vehicle: saline with Tween-80); 88 % of control (dose: 2.5 mg/kg/injection, schedule: Q01DX009 (ip), vehicle: saline with Tween-80); 100 % of control under setting [1]; 86 % of control (dose: 5.0 mg/kg/injection, schedule: Q01DX009 (ip), vehicle: saline with Tween-80); 123 % of control (dose: 10.0 mg/kg/injection, schedule: Q04DX003 (ip), vehicle: saline with Tween-80).

As for `CCN(CC)CCC(=O)c1ccccc1`, the T/C was 114 % of control under setting [6]; 108 % of control under setting [3]; 117 % of control under setting [4]; 107 % of control under setting [5]; 108 % of control under setting [7]; 107 % of control (dose: 100.0 mg/kg/injection, schedule: Q01DX009 (ip), vehicle: saline with Tween-80).

`O=C=Nc1ccc(Cc2ccc(N=C=O)cc2)cc1`: the T/C (dose: 400.0 mg/kg/injection, schedule: Q01DX009 (ip), vehicle: Klucel (hydroxypropylcellulose) (HPC)) was 123 % of control.

`C=C1COC(O)(C2OCOC(C3CC(=O)NC(=O)C3)C2O)C1C` (stereo not drawn): the T/C (dose: 2.0 micrograms/kg/injection, schedule: Q01DX009 (ip), vehicle: water) was 104 % of control; the T/C (dose: 4.0 micrograms/kg/injection, schedule: Q01DX009 (ip), vehicle: water) is 104 % of control; the T/C (dose: 8.0 micrograms/kg/injection, schedule: Q01DX009 (ip), vehicle: water) is 100 % of control; the T/C (dose: 16.0 micrograms/kg/injection, schedule: Q01DX009 (ip), vehicle: water) is 108 % of control; the T/C (dose: 32.0 micrograms/kg/injection, schedule: Q01DX009 (ip), vehicle: water) was 103 % of control.

Consider `CC(NC1=NCCO1)c1cccc2ccccc12` (stereo not drawn), for which the T/C (dose: 8.0 mg/kg/injection, schedule: Q04DX003 (ip), vehicle: saline with Tween-80) was 102 % of control; the T/C under setting [8] was 115 % of control; the T/C under setting [4] was 102 % of control; the T/C (dose: 18.0 mg/kg/injection, schedule: Q04DX003 (ip), vehicle: saline with Tween-80) was 102 % of control; the T/C under setting [5] is 106 % of control; the T/C under setting [7] was 93 % of control. Also, the T/C (dose: 50.0 mg/kg/injection, schedule: Q04DX003 (ip), vehicle: saline with Tween-80) was 123 % of control.

With `Cc1cccc2c(Nc3ccc(NS(C)(=O)=O)cc3)c3ccc([N+](=O)[O-])cc3nc12`, the T/C runs as follows: under setting [9], 155 % of control; (dose: 12.0 mg/kg/injection, schedule: Q01DX009 (ip), vehicle: saline with Tween-80) 194 % of control.

`C[Si](C)(C)c1c(F)c(F)cc(F)c1F`: the T/C was 98 % of control (dose: 100.0 mg/kg/injection, schedule: Q04DX003 (ip), vehicle: Klucel (hydroxypropylcellulose) (HPC)); 97 % of control (dose: 200.0 mg/kg/injection, schedule: Q04DX003 (ip), vehicle: Klucel (hydroxypropylcellulose) (HPC)); 97 % of control (dose: 400.0 mg/kg/injection, schedule: Q04DX003 (ip), vehicle: Klucel (hydroxypropylcellulose) (HPC)).

For `CC1=C(/C=C/C(C)=C/C=C/C(C)=C/CO)C(C)(C)CCC1`, the T/C is, setting by setting: under setting [10], 90 % of control and 100 % of control; under setting [9], 99 % of control and 101 % of control; under setting [11], 97 % of control and 103 % of control; under setting [12], 90 % of control and 105 % of control.

On to `COc1cc2c(c(OC)c1OC)-c1ccc(OC)c(=O)cc1[C@@H](NC(C)=O)CC2`, for which the T/C by setting is: (dose: 0.12 mg/kg/injection, schedule: Q01DX009 (ip), vehicle: saline) 123 % of control; (dose: 0.13 mg/kg/injection, schedule: Q01DX009 (ip), vehicle: saline) 120 % of control; (dose: 0.25 mg/kg/injection, schedule: Q01DX009 (ip), vehicle: water) 179 % of control; (dose: 0.4 mg/kg/injection, schedule: Q01DX009 (ip), vehicle: saline) 152 % of control; (dose: 0.5 mg/kg/injection, schedule: Q01DX009 (ip), vehicle: saline) 113 % of control; (dose: 0.5 mg/kg/injection, schedule: Q01DX009 (ip), vehicle: water) 150 % of control and 154 % of control. Moreover, the T/C is 166 % of control (dose: 1.0 mg/kg/injection, schedule: Q01DX009 (ip), vehicle: water); 121 % of control (dose: 63.0 micrograms/kg/injection, schedule: Q01DX009 (ip), vehicle: saline); 150 % of control (dose: 250.0 micrograms/kg/injection, schedule: Q01DX009 (ip), vehicle: saline); 151 % of control (dose: 500.0 micrograms/kg/injection, schedule: Q01DX009 (ip), vehicle: saline); 155 % of control (dose: 1000.0 micrograms/kg/injection, schedule: Q01DX009 (ip), vehicle: saline).

Turning to `CCc1ccc(/C=C/c2ccc(O)c3ncccc23)[n+](C)c1`, the T/C is, setting by setting: under setting [10], 93 % of control; under setting [9], 93 % of control; under setting [11], 102 % of control; under setting [12], 114 % of control.

`NC(=S)N/N=C\c1nccc2c(C(F)(F)F)cccc12`: the T/C runs as follows: (dose: 1.5 mg/kg/injection, schedule: Q04DX003 (ip), vehicle: saline with Tween-80) 105 % of control; (dose: 3.0 mg/kg/injection, schedule: Q04DX003 (ip), vehicle: saline with Tween-80) 110 % of control; (dose: 6.0 mg/kg/injection, schedule: Q04DX003 (ip), vehicle: saline with Tween-80) 100 % of control; under setting [8], 102 % of control.

(Values after PubChem BioAssay AID192 (DTP/NCI, 2004).)
